Test results reported in patent publication EP4793274A1, “SALT AND CRYSTAL FORM OF KIF18A INHIBITOR COMPOUND, PREPARATION METHOD THEREFOR AND USE THEREOF” (Hubei Bio-Pharmaceutical Industrial Technological Institute …, priority 2023, dated 2025).
Structures can show the parent of a compound that is named as a salt.

How the values were obtained:
[1] = Solubility at room temperature in water, SGF and FaSSIF (HPLC concentration, pH of filtrate, XRPD of residual solid); conditions: for S: solubility: feeding concentration 1 mg/mL; for pH: pH of filtrate
[2] = Hygroscopicity by dynamic vapor sorption (DVS); type: physicochemical; conditions: 25 °C/80% RH
Method: Dynamic vapor sorption (DVS) curves were acquired on a DVS IntrInsic from Surface Measurement Systems (SMS). The relative humidity at 25 °C was corrected with the deliquescence points of LiCl, Mg(NO3)2, and KCl. Table A-5. DVS test parameters
The percentage changes in mass of the samples when the humidity changed (0% RH to 95% RH) at a constant temperature of 25 °C were collected. 157-166.

[3] = Solid state stability (XRPD and HPLC purity); type: physicochemical
Text: 167-171. […] Table C-3. Summary of solid state stability evaluation

[4] = Dynamic solubility at 37 °C in H2O, SGF, FaSSIF and FeSSIF (HPLC concentration, pH of filtrate, XRPD of residual solid); type: physicochemical; conditions: listed as Crystal form E of methanesulfonate; for S: solubility: feeding concentration 10 mg/mL; for FC: crystal form change: XRPD of residual solid; for pH: pH of filtrate
Method: 0.82 mL of glacial acetic acid and 1.18 g of NaCl were added to a 100 mL volumetric flask and completely dissolved by addition of purified water.
The solubility of each sample in H2O, SGF, FaSSIF, and FeSSIF was determined at different time points (1 h, 2 h, 4 h, and 24 h). […] 137-156. […] Table C-2. Summary of dynamic solubility test results at 37 °C

[5] = 80 °C/sealed, 1 day, listed as Crystal form E of methanesulfonate

In the case of `Cc1cc(-c2cnn(-c3ccc(NS(=O)(=O)CCO)cc3N3CCC4(CC3)CC4)c2)nc(N2CCC(F)(F)CC2)n1` [crystal form C of the hydrochloride], the “S: solubility” value ([1]; FaSSIF, 2 h, listed as Crystal form C of hydrochloride, 120 min) is reported as 120.4 µg/mL, the “S: solubility” value ([1]; FaSSIF, 24 h, listed as Crystal form C of hydrochloride, 1440 min) is reported as 36.3 µg/mL and the “S: solubility” value ([1]; H2O, 24 h, listed as Crystal form C of hydrochloride, 1440 min) is reported as 0.2 µg/mL. The “S: solubility” value ([1]; SGF, 2 h, listed as Crystal form C of hydrochloride, 120 min) was 54.1 µg/mL, the “S: solubility” value ([1]; SGF, 24 h, listed as Crystal form C of hydrochloride, 1440 min) was 18.8 µg/mL and the pH ([1]; FaSSIF, 2 h, listed as Crystal form C of hydrochloride) was 6.3. The pH ([1]; FaSSIF, 24 h, listed as Crystal form C of hydrochloride) was 6.3, the pH ([1]; H2O, 2 h, listed as Crystal form C of hydrochloride) was 2.7 and the pH ([1]; H2O, 24 h, listed as Crystal form C of hydrochloride) was 2.7. For the same compound, the pH ([1]; SGF, 2 h, listed as Crystal form C of hydrochloride) was 1.8 and the pH ([1]; SGF, 24 h, listed as Crystal form C of hydrochloride) was 1.8.
With `Cc1cc(-c2cnn(-c3ccc(NS(=O)(=O)CCO)cc3N3CCC4(CC3)CC4)c2)nc(N2CCC(F)(F)CC2)n1` [crystal form E of the methanesulfonate] the vapor sorption values [2] was 2.324%, the “HPLC results Relative to starting (%)” value ([3]; 25 °C/60% RH/open, 1 week) was 100.0% and the “HPLC results Purity (area%)” value ([3]; 25 °C/60% RH/open, 1 week, listed as Crystal form E of methanesulfonate) was 98.39 area%. The “HPLC results Relative to starting (%)” value ([3]; 40 °C/75% RH/open, 1 week) was 100.0%, the “HPLC results Purity (area%)” value ([3]; 40 °C/75% RH/open, 1 week, listed as Crystal form E of methanesulfonate) was 98.39 area% and the “HPLC results Purity (area%)” value [3, 5] was 98.37 area%. The “HPLC results Relative to starting (%)” value [3, 5] was 100.0%, the “HPLC results Purity (area%)” value ([3]; Starting, listed as Crystal form E of methanesulfonate) was 98.36 area% and the Crystal form ([3]; XRPD after 25 °C/60% RH/open, 1 week, listed as Crystal form E of methanesulfonate) was “Crystal form E of methanesulfonate”. The Crystal form ([3]; XRPD after 40 °C/75% RH/open, 1 week, listed as Crystal form E of methanesulfonate) was “Crystal form E of methanesulfonate”, the Crystal form ([3]; XRPD after 80 °C/sealed, 1 day, listed as Crystal form E of methanesulfonate) was “Crystal form E of methanesulfonate” and the “S: solubility” value ([4]; FaSSIF, 1 h, 60 min) was 60.4 µg/mL. The “S: solubility” value ([4]; FaSSIF, 2 h, 120 min) was 46.6 µg/mL, the “S: solubility” value ([4]; FaSSIF, 4 h, 240 min) was 35.9 µg/mL and the “S: solubility” value ([4]; FaSSIF, 24 h, 1440 min) was 18.7 µg/mL. The “S: solubility” value ([4]; FeSSIF, 1 h, 60 min) was 194.4 µg/mL, the “S: solubility” value ([4]; FeSSIF, 2 h, 120 min) was 183.4 µg/mL and the “S: solubility” value ([4]; FeSSIF, 4 h, 240 min) was 172.5 µg/mL. The “S: solubility” value ([4]; FeSSIF, 24 h, 1440 min) was 89.9 µg/mL, the “S: solubility” value ([4]; H2O, 1 h, 60 min) was 18.5 µg/mL and the “S: solubility” value ([4]; H2O, 2 h, 120 min) was 14.5 µg/mL. The “S: solubility” value ([4]; H2O, 4 h, 240 min) was 12.4 µg/mL, the “S: solubility” value ([4]; H2O, 24 h, 1440 min) was 4.5 µg/mL and the “S: solubility” value ([4]; SGF, 1 h, 60 min) was 125.1 µg/mL. The “S: solubility” value ([4]; SGF, 2 h, 120 min) was 100.2 µg/mL, the “S: solubility” value ([4]; SGF, 4 h, 240 min) was 84.6 µg/mL and the “S: solubility” value ([4]; SGF, 24 h, 1440 min) was 16.4 µg/mL. The “FC: crystal form change” value ([4]; FaSSIF, 1 h) was “Yes”, the “FC: crystal form change” value ([4]; FaSSIF, 2 h) was “Yes” and the “FC: crystal form change” value ([4]; FaSSIF, 4 h) was “Yes”. The “FC: crystal form change” value ([4]; FaSSIF, 24 h) was “Yes”, the “FC: crystal form change” value ([4]; FeSSIF, 1 h) was “Yes” and the “FC: crystal form change” value ([4]; FeSSIF, 2 h) was “Yes”. The “FC: crystal form change” value ([4]; FeSSIF, 4 h) was “Yes”, the “FC: crystal form change” value ([4]; FeSSIF, 24 h) was “Yes” and the “FC: crystal form change” value ([4]; H2O, 1 h) was “Yes”. For the same compound, the “FC: crystal form change” value ([4]; H2O, 2 h) was “Yes”, the “FC: crystal form change” value ([4]; H2O, 4 h) was “Yes” and the “FC: crystal form change” value ([4]; H2O, 24 h) was “Yes”. For the same compound, the “FC: crystal form change” value ([4]; SGF, 1 h) was “Yes”, the “FC: crystal form change” value ([4]; SGF, 2 h) was “Yes” and the “FC: crystal form change” value ([4]; SGF, 4 h) was “Yes”. The “FC: crystal form change” value ([4]; SGF, 24 h) was “Yes”, the pH ([4]; FaSSIF, 1 h) was 2.78 and the pH ([4]; FaSSIF, 2 h) was 2.76. The pH ([4]; FaSSIF, 4 h) was 2.77, the pH ([4]; FaSSIF, 24 h) was 2.84 and the pH ([4]; FeSSIF, 1 h) was 4.69. For the same compound, the pH ([4]; FeSSIF, 2 h) was 4.68, the pH ([4]; FeSSIF, 4 h) was 4.70 and the pH ([4]; FeSSIF, 24 h) was 4.70. The pH ([4]; H2O, 1 h) was 1.79, the pH ([4]; H2O, 2 h) was 1.76 and the pH ([4]; H2O, 4 h) was 1.80. For the same compound, the pH ([4]; H2O, 24 h) was 1.76, the pH ([4]; SGF, 1 h) was 1.49 and the pH ([4]; SGF, 2 h) was 1.46. For the same compound, the pH ([4]; SGF, 4 h) was 1.48 and the pH ([4]; SGF, 24 h) was 1.54.
In the case of `Cc1cc(-c2cnn(-c3ccc(NS(=O)(=O)CCO)cc3N3CCC4(CC3)CC4)c2)nc(N2CCC(F)(F)CC2)n1` [free crystal form C], the “S: solubility” value ([1]; FaSSIF, 2 h, 120 min) is reported as 13.6 µg/mL, the “S: solubility” value ([1]; FaSSIF, 24 h, 1440 min) is reported as 3.8 µg/mL and the “S: solubility” value ([1]; SGF, 2 h, 120 min) is reported as 4 µg/mL. For the same compound, the “S: solubility” value ([1]; SGF, 24 h, 1440 min) was 3.4 µg/mL, the pH ([1]; FaSSIF, 2 h) was 6.5 and the pH ([1]; FaSSIF, 24 h) was 6.5. The pH ([1]; H2O, 2 h) was 8.7, the pH ([1]; H2O, 24 h) was 7.2 and the pH ([1]; SGF, 2 h) was 1.9. It also gave a pH ([1]; SGF, 24 h) of 1.9.
